Results published in ChEMBL document CHEMBL3400026, “Synthesis of novel 24-amino-25,26,27-trinorlanost-8-enes: cytotoxic and apoptotic potential in U937 cells” (Bioorg Med Chem, 2015).
Calls of active or inactive are those of the source. The calls are words filed in the database; no cut-off is given here.

Tested on: not listed separately
Experiment: Cytotoxicity against human U937 cells after 24 hrs by MTT assay
Assay type: functional, cell-based
Conditions: U-937, 24 h

**Q.** Which IC50 does the source give for `COc1cc([C@@H]2c3cc4c(cc3[C@@H](O[C@@H]3O[C@@H]5CO[C@@H](C)O[C@H]5[C@H](O)[C@H]3O)[C@H]3COC(=O)[C@H]23)OCO4)cc(OC)c1O` [ETOPOSIDE] here?
**A.** The IC50 was 1.5 µM.

**Q.** For `C[C@H](CCCN1CCCCC1)[C@H]1CC[C@@]2(C)C3=C(CC[C@]12C)[C@@]1(C)CC[C@H](O)C(C)(C)[C@@H]1CC3`, which IC50 is on record?
**A.** The IC50 was 1.9 µM.

**Q.** Which IC50 does the source give for `CCN(CC)CCC[C@@H](C)[C@H]1CC[C@@]2(C)C3=C(CC[C@]12C)[C@@]1(C)CC[C@H](OC(C)=O)C(C)(C)[C@@H]1CC3` here?
**A.** The IC50 was 16.4 µM.

**Q.** For `C[C@H](CCCN1CCN(CCO)CC1)[C@H]1CC[C@@]2(C)C3=C(CC[C@]12C)[C@@]1(C)CC[C@H](O)C(C)(C)[C@@H]1CC3`, which IC50 is on record?
**A.** The IC50 was 2.7 µM.

**Q.** With `CC[N+]([O-])(CC)CCC[C@@H](C)[C@H]1CC[C@@]2(C)C3=C(CC[C@]12C)[C@@]1(C)CC[C@H](OC(C)=O)C(C)(C)[C@@H]1CC3` as the compound, how does the IC50 read?
**A.** Its IC50 is 21.1 µM.

**Q.** With `CC(=O)O[C@H]1CC[C@]2(C)C3=C(CC[C@H]2C1(C)C)[C@]1(C)CC[C@H]([C@H](C)CCCNc2ccccc2)[C@@]1(C)CC3` as the compound, how does the IC50 read?
**A.** The IC50 was 367 µM.

Tested on: U-937
Experiment: Induction of apoptosis in human U937 cells assessed as condensed/fragmented nuclei at 10 ug/ml after 24 hrs using Hoechst 33342 staining by microscopy relative to solvent control
Assay type: functional
Conditions: not given

**Q.** Which Activity does the source give for `COc1cc([C@@H]2c3cc4c(cc3[C@@H](O[C@@H]3O[C@@H]5CO[C@@H](C)O[C@H]5[C@H](O)[C@H]3O)[C@H]3COC(=O)[C@H]23)OCO4)cc(OC)c1O` [ETOPOSIDE] here?
**A.** The Activity was 24.8%.

**Q.** Which Activity does the source give for `C[C@H](CCCN1CCCCC1)[C@H]1CC[C@@]2(C)C3=C(CC[C@]12C)[C@@]1(C)CC[C@H](O)C(C)(C)[C@@H]1CC3` here?
**A.** Its Activity is 5.5%.

**Q.** With `CCN(CC)CCC[C@@H](C)[C@H]1CC[C@@]2(C)C3=C(CC[C@]12C)[C@@]1(C)CC[C@H](OC(C)=O)C(C)(C)[C@@H]1CC3` as the compound, how does the Activity read?
**A.** Its Activity is 6.9%.

**Q.** With `C[C@H](CCCN1CCN(CCO)CC1)[C@H]1CC[C@@]2(C)C3=C(CC[C@]12C)[C@@]1(C)CC[C@H](O)C(C)(C)[C@@H]1CC3` as the compound, how does the Activity read?
**A.** The Activity was 6.6%.

Tested on: U-937
Experiment: Induction of apoptosis in human U937 cells assessed as condensed/fragmented nuclei at 25 ug/ml after 24 hrs using Hoechst 33342 staining by microscopy relative to solvent control
Assay type: functional
Conditions: not given

**Q.** Which Activity does the source give for `CCN(CC)CCC[C@@H](C)[C@H]1CC[C@@]2(C)C3=C(CC[C@]12C)[C@@]1(C)CC[C@H](OC(C)=O)C(C)(C)[C@@H]1CC3` here?
**A.** Its Activity is 6.6%.

**Q.** With `CC[N+]([O-])(CC)CCC[C@@H](C)[C@H]1CC[C@@]2(C)C3=C(CC[C@]12C)[C@@]1(C)CC[C@H](OC(C)=O)C(C)(C)[C@@H]1CC3` as the compound, how does the Activity read?
**A.** The Activity was 7%.

Tested on: U-937
Experiment: Induction of apoptosis in human U937 cells assessed as condensed/fragmented nuclei at 50 ug/ml after 24 hrs using Hoechst 33342 staining by microscopy relative to solvent control
Assay type: functional
Conditions: not given

**Q.** With `CC[N+]([O-])(CC)CCC[C@@H](C)[C@H]1CC[C@@]2(C)C3=C(CC[C@]12C)[C@@]1(C)CC[C@H](OC(C)=O)C(C)(C)[C@@H]1CC3` as the compound, how does the Activity read?
**A.** Its Activity is 5%.

Tested on: U-937
Experiment: Induction of apoptosis in human U937 cells assessed as condensed/fragmented nuclei at 5 ug/ml after 24 hrs using Hoechst 33342 staining by microscopy relative to solvent control
Assay type: functional
Conditions: not given

**Q.** With `COc1cc([C@@H]2c3cc4c(cc3[C@@H](O[C@@H]3O[C@@H]5CO[C@@H](C)O[C@H]5[C@H](O)[C@H]3O)[C@H]3COC(=O)[C@H]23)OCO4)cc(OC)c1O` [ETOPOSIDE] as the compound, how does the Activity read?
**A.** The Activity was 23.7%.

**Q.** Which Activity does the source give for `C[C@H](CCCN1CCCCC1)[C@H]1CC[C@@]2(C)C3=C(CC[C@]12C)[C@@]1(C)CC[C@H](O)C(C)(C)[C@@H]1CC3` here?
**A.** Its Activity is 7.4%.

**Q.** With `C[C@H](CCCN1CCN(CCO)CC1)[C@H]1CC[C@@]2(C)C3=C(CC[C@]12C)[C@@]1(C)CC[C@H](O)C(C)(C)[C@@H]1CC3` as the compound, how does the Activity read?
**A.** Its Activity is 7.6%.

Tested on: U-937
Experiment: Induction of apoptosis in human U937 cells assessed as condensed/fragmented nuclei at 12 ug/ml after 24 hrs using Hoechst 33342 staining by microscopy relative to solvent control
Assay type: functional
Conditions: not given

**Q.** For `CC(C)CCC[C@@H](C)[C@H]1CC[C@H]2[C@@H]3C(=O)C=C4C[C@@H](O)CC[C@]4(C)[C@H]3CC[C@]12C` [7-OXOCHOLESTEROL], which Activity is on record?
**A.** The Activity was 7.3%.

Tested on: U-937
Experiment: Induction of apoptosis in human U937 cells assessed as caspase 3/7 level at 10 ug/ml after 24 hrs by Caspase-Glo 3/7 assay relative to solvent control
Assay type: functional
Conditions: not given

**Q.** Which Activity does the source give for `COc1cc([C@@H]2c3cc4c(cc3[C@@H](O[C@@H]3O[C@@H]5CO[C@@H](C)O[C@H]5[C@H](O)[C@H]3O)[C@H]3COC(=O)[C@H]23)OCO4)cc(OC)c1O` [ETOPOSIDE] here?
**A.** The Activity was 5.9%.

**Q.** With `C[C@H](CCCN1CCCCC1)[C@H]1CC[C@@]2(C)C3=C(CC[C@]12C)[C@@]1(C)CC[C@H](O)C(C)(C)[C@@H]1CC3` as the compound, how does the Activity read?
**A.** The Activity was 2.1%.

**Q.** With `CCN(CC)CCC[C@@H](C)[C@H]1CC[C@@]2(C)C3=C(CC[C@]12C)[C@@]1(C)CC[C@H](OC(C)=O)C(C)(C)[C@@H]1CC3` as the compound, how does the Activity read?
**A.** The Activity was 4.9%.

**Q.** For `C[C@H](CCCN1CCN(CCO)CC1)[C@H]1CC[C@@]2(C)C3=C(CC[C@]12C)[C@@]1(C)CC[C@H](O)C(C)(C)[C@@H]1CC3`, which Activity is on record?
**A.** Its Activity is 1.3%.

Tested on: U-937
Experiment: Induction of apoptosis in human U937 cells assessed as caspase 3/7 level at 25 ug/ml after 24 hrs by Caspase-Glo 3/7 assay relative to solvent control
Assay type: functional
Conditions: not given

**Q.** For `CCN(CC)CCC[C@@H](C)[C@H]1CC[C@@]2(C)C3=C(CC[C@]12C)[C@@]1(C)CC[C@H](OC(C)=O)C(C)(C)[C@@H]1CC3`, which Activity is on record?
**A.** The Activity was 7.3%.

**Q.** Which Activity does the source give for `CC[N+]([O-])(CC)CCC[C@@H](C)[C@H]1CC[C@@]2(C)C3=C(CC[C@]12C)[C@@]1(C)CC[C@H](OC(C)=O)C(C)(C)[C@@H]1CC3` here?
**A.** The Activity was 4.4%.

Tested on: U-937
Experiment: Induction of apoptosis in human U937 cells assessed as caspase 3/7 level at 50 ug/ml after 24 hrs by Caspase-Glo 3/7 assay relative to solvent control
Assay type: functional
Conditions: not given

**Q.** For `CC[N+]([O-])(CC)CCC[C@@H](C)[C@H]1CC[C@@]2(C)C3=C(CC[C@]12C)[C@@]1(C)CC[C@H](OC(C)=O)C(C)(C)[C@@H]1CC3`, which Activity is on record?
**A.** Its Activity is 4.3%.

Tested on: U-937
Experiment: Induction of apoptosis in human U937 cells assessed as caspase 3/7 level at 5 ug/ml after 24 hrs by Caspase-Glo 3/7 assay relative to solvent control
Assay type: functional
Conditions: not given

**Q.** With `COc1cc([C@@H]2c3cc4c(cc3[C@@H](O[C@@H]3O[C@@H]5CO[C@@H](C)O[C@H]5[C@H](O)[C@H]3O)[C@H]3COC(=O)[C@H]23)OCO4)cc(OC)c1O` [ETOPOSIDE] as the compound, how does the Activity read?
**A.** The Activity was 6.4%.

**Q.** With `C[C@H](CCCN1CCCCC1)[C@H]1CC[C@@]2(C)C3=C(CC[C@]12C)[C@@]1(C)CC[C@H](O)C(C)(C)[C@@H]1CC3` as the compound, how does the Activity read?
**A.** Its Activity is 2%.

**Q.** For `C[C@H](CCCN1CCN(CCO)CC1)[C@H]1CC[C@@]2(C)C3=C(CC[C@]12C)[C@@]1(C)CC[C@H](O)C(C)(C)[C@@H]1CC3`, which Activity is on record?
**A.** The Activity was 1.2%.

Tested on: U-937
Experiment: Induction of apoptosis in human U937 cells assessed as caspase 3/7 level at 12 ug/ml after 24 hrs by Caspase-Glo 3/7 assay relative to solvent control
Assay type: functional
Conditions: not given

**Q.** Which Activity does the source give for `CC(C)CCC[C@@H](C)[C@H]1CC[C@H]2[C@@H]3C(=O)C=C4C[C@@H](O)CC[C@]4(C)[C@H]3CC[C@]12C` [7-OXOCHOLESTEROL] here?
**A.** The Activity was 2.2%.

Tested on: U-937
Experiment: Induction of apoptosis in human U937 cells assessed as DNA fragmentation measured as DNA laddering at 25 ug/ml after 24 hrs by agarose gel electophoresis relative to solvent control
Assay type: functional, cell-based
Conditions: not given

**Q.** For `CC[N+]([O-])(CC)CCC[C@@H](C)[C@H]1CC[C@@]2(C)C3=C(CC[C@]12C)[C@@]1(C)CC[C@H](OC(C)=O)C(C)(C)[C@@H]1CC3`, which Activity is on record?
**A.** Its Activity is “Active”.

Tested on: U-937
Experiment: Induction of apoptosis in human U937 cells assessed as DNA fragmentation measured as DNA laddering at 10 ug/ml after 24 hrs by agarose gel electophoresis relative to solvent control
Assay type: functional, cell-based
Conditions: not given

**Q.** With `CCN(CC)CCC[C@@H](C)[C@H]1CC[C@@]2(C)C3=C(CC[C@]12C)[C@@]1(C)CC[C@H](OC(C)=O)C(C)(C)[C@@H]1CC3` as the compound, how does the Activity read?
**A.** Its Activity is “Active”.

Tested on: U-937
Experiment: Induction of apoptosis in human U937 cells assessed as DNA fragmentation measured as DNA laddering at 5 ug/ml after 24 hrs by agarose gel electophoresis relative to solvent control
Assay type: functional, cell-based
Conditions: not given

**Q.** With `COc1cc([C@@H]2c3cc4c(cc3[C@@H](O[C@@H]3O[C@@H]5CO[C@@H](C)O[C@H]5[C@H](O)[C@H]3O)[C@H]3COC(=O)[C@H]23)OCO4)cc(OC)c1O` [ETOPOSIDE] as the compound, how does the Activity read?
**A.** Its Activity is “Active”.

**Q.** Which Activity does the source give for `C[C@H](CCCN1CCCCC1)[C@H]1CC[C@@]2(C)C3=C(CC[C@]12C)[C@@]1(C)CC[C@H](O)C(C)(C)[C@@H]1CC3` here?
**A.** The Activity was “Active”.

Tested on: U-937
Experiment: Induction of apoptosis in human U937 cells assessed as DNA fragmentation measured as DNA laddering at 12 ug/ml after 24 hrs by agarose gel electophoresis relative to solvent control
Assay type: functional, cell-based
Conditions: not given

**Q.** Which Activity does the source give for `CC(C)CCC[C@@H](C)[C@H]1CC[C@H]2[C@@H]3C(=O)C=C4C[C@@H](O)CC[C@]4(C)[C@H]3CC[C@]12C` [7-OXOCHOLESTEROL] here?
**A.** The Activity was “Active”.
